Measurements taken from patent US8187831B2, “Determination of ions using ion-sensitive enzymes” (General Atomics, priority 2003, dated 2012).
Read-outs that look alike come from different tables or passages of the source.

Columns and labels:
[1] = target: T1, chimeric 3′(2′),5′-bisphosphate nucleotidase (Saccharomyces cerevisiae, UniProt P32179); assay type: biochemical, Saccharomyces cerevisaie
T1 construct: His6 (C)
Description: (§1) Assay Principle. […] Through enzymatic coupling, the phosphatase substrate, adenosine 3′,5′-bisphosphate (PAP) was converted to hypoxanthine by a series of enzymatic reactions to generate uric acid and hydrogen peroxide (H2O2). H2O2 generated reacts with N-Ethyl-N-(2-hydroxy-3-sulfopropyl)-3-m-toluidine (EHSPT) and 4-aminoantipyrine (4-AA) in the presence of peroxidase (POD) to form a quinone dye which had maximal absorbance at 556 nm. The rate of the quinine dye formation was inversely proportion to the concentration of sodium in serum samples. The enzymatic coupling reaction scheme is shown below in Table 3:
Key Assay Characteristics. The sodium enzymatic assay was a two reagent (R1 and R2) based kinetic assay system. The results were obtained in 10 min by measuring absorbance at 550 nm. No off line pretreatment was needed.
Assay Procedure. • 1. Reconstituted R1 and R2 reagents as described in Reagent Preparation section and kept the reconstituted R1 and R2 reagents on ice bath. • 2. In a cuvette, mixed 180 μL of Reagent R1 and 20 μL of serum sample and incubated at 37° C. for 1 minute and then added 85 μL of Reagent 2. • 3. Read absorbance (550 nm) at 3 min (2 min after addition of Reagent 2) as A1. Incubated for a further 7 min and read the absorbance at 10 min as A2. • 4. Calculated ΔA=A2−A1
Calibration. This assay was calibrated daily using the enclosed low and high sodium standards. A calibration curve was constructed by plotting the ΔA values of the standards against the corresponding sodium concentrations. The sodium concentration of the sample was read from the calibration curve.

[2] = target: T1, chimeric 3′(2′),5′-bisphosphate nucleotidase; assay: biochemical; parameters: species or system Saccharomyces cerevisaie
Description: as §1, with “(H2O2). The” for “(H2O2).”, “reacted” for “reacts”, “lithium” for “sodium”, “6.” for “3:”
Key Assay Characteristics. The lithium enzymatic assay was a two reagent (R1 and R2) based kinetic assay system. The results were obtained in 10 min by measuring absorbance at 550 nm. No off line pretreatment was needed.
Assay Procedure. • 1. Reconstituted R1 and R2 reagents as described in Reagent Preparation section and kept the reconstituted R1 and R2 reagents on ice bath. • 2. In a cuvette, mixed 180 μL of Reagent R1 and 5 μL of serum sample and incubated at 37° C. for 1 minute and then added 85 μL of Reagent 2. • 3. Read absorbance (550 nm) at 6 minutes as A1. Incubated for 3 more minutes and read the absorbance at 9 minute as A2. • 4. Calculated ΔA=A2−A1
Calibration and Quality Control. The assay was calibrated daily using the enclosed low and high lithium standards. The calibration curve was constructed by plotting the ΔA values of the standards against the corresponding lithium concentrations. The lithium concentration of the sample was read from the calibration curve. The assay should be calibrated daily.

T1 sequence (P32179 other isoform, or with tags, fused parts or gaps): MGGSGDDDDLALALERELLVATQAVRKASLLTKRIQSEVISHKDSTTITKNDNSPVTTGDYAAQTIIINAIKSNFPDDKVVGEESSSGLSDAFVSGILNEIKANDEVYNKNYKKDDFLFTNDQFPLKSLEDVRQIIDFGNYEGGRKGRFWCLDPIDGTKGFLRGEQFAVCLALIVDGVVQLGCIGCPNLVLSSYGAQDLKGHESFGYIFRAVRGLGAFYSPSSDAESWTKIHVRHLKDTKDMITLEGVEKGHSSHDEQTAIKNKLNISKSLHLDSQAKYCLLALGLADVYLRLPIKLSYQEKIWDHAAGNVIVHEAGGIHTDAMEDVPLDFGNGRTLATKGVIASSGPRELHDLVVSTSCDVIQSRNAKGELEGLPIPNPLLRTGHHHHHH

## [Ca+2].[Cl-].[Cl-] [CaCl2]
[1]; substance at 5 mM
  Interference with sodium assay: not interfered

## [Ca+2] [Ca^2+]
[2]; substance at 4.0 mM
  Interference with lithium assay: not interfered

## [Cl][Cu][Cl] [CuCl2]
[1]; substance at 0.25 mM
  Interference with sodium assay: not interfered

## [Cu+2] [Cu^2+]
[2]; substance at 0.25 mM
  Interference with lithium assay: not interfered

## [Cl][Fe]([Cl])[Cl] [FeCl3]
[1]; substance at 0.25 mM
  Interference with sodium assay: not interfered

## [Fe+3] [Fe^3+]
[2]; substance at 0.25 mM
  Interference with lithium assay: not interfered

## [Cl-].[K+] [KCl]
[1]; substance at 10 mM
  Interference with sodium assay: not interfered

## [K+] [K^+]
[2]
  Interference with lithium assay: not interfered

## [Mg+2] [Mg^2+]
[2]; substance at 2.0 mM
  Interference with lithium assay: not interfered

## Cl.N [NH4Cl]
[1]
  Interference with sodium assay: not interfered

## N [NH4^+]
[2]; substance at 0.5 mM
  Interference with lithium assay: not interfered

## [Cl-].[Na+] [NaCl]
[1]
  Interference with sodium assay: not interfered

## [Cl-].[Cl-].[Zn+2] [ZnCl2]
[1]; substance at 0.25 mM
  Interference with sodium assay: not interfered

## [Zn+2] [Zn^2+]
[2]; substance at 0.25 mM
  Interference with lithium assay: not interfered

## O=C1O[C@H]([C@@H](O)CO)C(O)=C1O [ascorbic acid]
[1]; substance at 5 mM
  Interference with sodium assay: not interfered
[2]; substance at 5.0 mM
  Interference with lithium assay: not interfered

## [Li] [lithium, reference compound]
[2]; read-out: IC50 (nucleotidase activity sensitive to lithium concentration)
  IC50: 100 µM

## [Na+] [sodium]
[1]; read-out: IC50 (nucleotidase activity sensitive to sodium concentration)
  IC50: 20 mM
[2]; substance at 200 mM
  Interference with lithium assay: not interfered

## KPi
[1]; substance at 1.5 mM
  Interference with sodium assay: not interfered

## triglyceride
[1]; substance at 250 mg/dl
  Interference with sodium assay: not interfered
